Legend:
[1] = system: Mouse Asthma Model; test: Mouse asthma model (OVA, intranasal induction); format: in vivo, BLAB/c mouse; details: 750 µg per time intranasally; BALF on DAY-28; Fig. 2
Experimental: Equivolume of 10% KAI(SO4)2·12H2O (WAKO) solution and ovalbumin (hereinafter "OVA") solution (500 µg/ml) were mixed, and 10N NaOH was slowly added to neutralize the solution to obtain Al(OH)3 gel (OVA 500 µg/ml) on which OVA was adsorbed. The obtained product was intraperitoneally administered to each BLAB/c mouse (female, 7 weeks old, JAPAN CHARLES RIVER) at a dose of 200 µl (100 µg) per mouse on DAY-0 and DAY-14. Thereafter, on DAY-14, 50 µl of 2 mg/ml solution of OVA in physiological saline was intranasally administered, and on DAY-25, 26 and 27, 50 µl of 1 mg/ml solution of OVA in physiologically saline was intranasally administered to induce inflammation. Compound No. 140 used as the test compound was dissolved in physiological saline and the solution was intranasally administered at 30 minutes before induction with OVA, at 8 hours after induction, and on DAY-25, 26 and 27, twice a day, at a dose of 750 µg per time. To the background group and control group, physiological saline was intranasally administered.
On DAY-28, bronchus of each mouse was incised and the bronchus and alveoli were washed (BAL) 4 times with 0.7 ml of physiological saline. […] After staining the specimen by May-Giemsa staining method, the leukocytes were grouped and counted under microscope to determine the number of eosinophils. […]

[2] = system: Guinea Pig Rhinitis Model; test: Guinea pig rhinitis model (OVA, respiratory resistance); format: in vivo, Harley guinea pig; details: 10 mg intranasally before induction by the antigen; 10 minutes to 8 hours after induction; Fig. 3
Experimental: Cyclophosphamide (SIGMA) was dissolved in physiological saline to a concentration of 25 mg/ml, and the solution was intraperitoneally administered to each Harley guinea pig (male, 2 weeks old, JAPAN SLC) at a dose of 50 mg/kg on DAY-0. Equivolume of OVA (2.0 mg/ml) dissolved in physiological saline and 12 ml of aqueous 9% AlK(SO4)2 solution were mixed, and then 10% aqueous Na2CO3 solution was added thereto to adjust the pH to 6.5, thereby obtaining Al(OH)3 gel (OVA 500 µg/ml) on which OVA was adsorbed. The obtained product was centrifuged and the precipitated gel was washed with PBS(-), followed by addition of Bordetella pertussis cell suspension (WAKO PURE CHEMICALS). The OVA concentration was adjusted to 100 µg/ml, and 1 ml (100 µg) of the resulting product was intraperitoneally administered to each guinea pig. On DAY-22, each mice was made to inhale 1% OVA dissolved in physiological saline for 10 minutes. […] The increase in the respiratory resistance from 10 minutes after the induction to 8 hours after the induction was measured by a respiratory resistance-measuring apparatus (body plethysmograph method; SHIZUME MEDICAL), and the result was expressed in terms of the ratio of the measured resistance based on the respiratory resistance measured before the induction by the antigen. […]

[3] = system: Mouse Peritonitis Induced by Ragweed Pollen; test: Mouse peritonitis induced by ragweed pollen; format: in vivo, BLAB/c mouse; details: 400 mg/kg intravenously, totally 5 times; 48 hours after induction
Experimental: Ragweed pollen extract 1:100 (TORII PHARMACEUTICAL) was diluted by 10-fold with physiological saline, and the resulting solution was used as an antigen for sensitization. This antigen solution was subcutaneously administered to each BLAB/c mouse (female, 6 weeks old, JAPAN CHARLES RIVER) in an amount of 100 µl each on DAY-0 and DAY-1, and 200 µl each on DAY-6, DAY-8 and DAY-14 to obtain sensitized mice, DAY-0 being the day of the initial sensitization. On DAY-20, 200 µl of the antigen solution was intraperitoneally administered to induce peritonitis. After 48 hours from the induction, each mouse was sacrificed by bleeding to death, and 3 ml of heparin-containing PBS(-) was intraperitoneally injected. Celiotomy was performed and washing solution of the abdominal cavity was recovered. The leukocytes contained in the recovered washing solution were subjected to site spin and a smear specimen was prepared. After staining the specimen by May-Giemsa staining method, the leukocytes were grouped and counted under microscope to determine the number of eosinophils. Compound No. 140 used as the test compound was dissolved in physiological saline and the solution was intravenously administered totally 5 times, i.e., at 16 hours before induction, at the time of induction, at 8 hours, 24 hours and 32 hours after induction, at a dose of 400 mg/kg per each time. […]

With `CC(C)(C)CC(=O)N[C@@H](CSSC[C@H](NC(=O)CC(C)(C)C)C(=O)O)C(=O)O` [Example 140, 3-((2(R)-carboxy-2(R)-(3,3-dimethylbutanoylamino)ethyl)disulfanyl)-2(R)-(3,3-dimethylbutanoylamino)propionic acid] the “accumulation of leukocytes, especially eosinophils, in the lung” value [1] was “inhibits”, the “increase in the respiratory resistance” value [2] was “inhibits” and the “inhibition rate of accumulation of leukocytes, especially eosinophils, to abdominal cavity” value [3] was 31.1%.

Reference: patent publication EP1209147A1, “CARBOXYLIC ACID DERIVATIVES AND ADHESION MOLECULE INHIBITORS CONTAINING THE SAME AS THE ACTIVE INGREDIENT” (TORAY INDUSTRIES, INC., priority 1999, dated 2001)
